Experimental data reported in ChEMBL document CHEMBL4609985, “Superior inhibition of influenza virus hemagglutinin-mediated fusion by indole-substituted spirothiazolidinones” (Bioorg Med Chem, 2020).

Legend:
[1] = Inhibition of Influenza A virus H3N2 A/X-31 hemagglutinin 3 E572K mutant expressed in HeLa cells assessed as polykaryon formation preincubated for 15 mins and further incubated for 15 mins with acidic buffer containing compounds at pH 5.2 by giemsa staining based microscopic analysis; format: cell-based, Influenza A virus (A/X-31(H3N2))
[2] = Inhibition of Influenza A virus H3N2 A/X-31 hemagglutinin 3 D1122N expressed in HeLa cells assessed as polykaryon formation preincubated for 15 mins and further incubated for 15 mins with acidic buffer containing compounds at pH 5.6 by giemsa staining based microscopic analysis; format: cell-based, Influenza A virus (A/X-31(H3N2))

SMILES: Cc1nc2sccn2c1C(=O)NN1C(=O)C(C)SC12CCC(C)CC2 (centres undefined)
- EC50 [1]: 9 µM
- EC50 [2]: > 25 µM

SMILES: Cc1c(C(=O)NN2C(=O)C(C)SC23CCC(C)CC3)[nH]c2ccc(Cl)cc12 (centres undefined)
- EC50 [1]: ≥ 13 µM
- EC50 [2]: > 25 µM

SMILES: Cc1c(C(=O)NN2C(=O)C(C)SC23CCCC(C)C3)[nH]c2ccc(Cl)cc12 (centres undefined)
- EC50 [1]: > 25 µM
- EC50 [2]: > 25 µM

SMILES: CCC1CCC2(CC1)SC(C)C(=O)N2NC(=O)c1[nH]c2ccc(Cl)cc2c1C (centres undefined)
- EC50 [1]: > 25 µM
- EC50 [2]: ≥ 21 µM

SMILES: Cc1c(C(=O)NN2C(=O)C(C)SC23CCCCC3)[nH]c2ccc(Cl)cc12 (centres undefined)
- EC50 [1]: > 25 µM
- EC50 [2]: > 25 µM

SMILES: CC(C)(C)c1cc(O)ccc1O [E319]
- EC50 [1]: 12 µM
- EC50 [2]: > 400 µM

SMILES: CCOC(=O)c1c(CSc2ccccc2)n(C)c2cc(Br)c(O)c(CN(C)C)c12 [UMIFENOVIR]
- EC50 [1]: > 200 µM
- EC50 [2]: > 200 µM
